Three compounds from patent publication US8722849B2, “Polypeptides” (Novo Nordisk A/S, priority 2011, dated 2014) can be followed below.

One may read the EC50 as the concentration that produces a half-maximal response. As a reminder, the solubility is the concentration that dissolves in the medium under given conditions.

The target of data set [1] is T1, human amylin receptor (amylin 3(a) receptor: human calcitonin receptor + RAMP-3) (Homo sapiens, UniProt O60896+P30988).
T1 construct: expressed in transfected cells; host or cells: BHK570
T1 sequence (P30988 25-474): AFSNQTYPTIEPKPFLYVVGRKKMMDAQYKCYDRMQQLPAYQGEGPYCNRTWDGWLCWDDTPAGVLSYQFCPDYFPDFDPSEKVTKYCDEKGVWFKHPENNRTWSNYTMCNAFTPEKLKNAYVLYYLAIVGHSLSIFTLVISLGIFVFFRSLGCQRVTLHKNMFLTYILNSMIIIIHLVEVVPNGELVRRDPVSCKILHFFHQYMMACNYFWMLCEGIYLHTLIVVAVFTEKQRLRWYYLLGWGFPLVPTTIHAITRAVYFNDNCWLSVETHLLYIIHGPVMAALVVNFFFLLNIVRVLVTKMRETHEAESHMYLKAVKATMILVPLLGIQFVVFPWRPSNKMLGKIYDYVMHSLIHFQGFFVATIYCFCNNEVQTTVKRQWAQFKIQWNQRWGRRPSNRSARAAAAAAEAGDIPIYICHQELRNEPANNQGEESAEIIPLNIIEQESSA
T1 sequence (O60896 24-148 partner): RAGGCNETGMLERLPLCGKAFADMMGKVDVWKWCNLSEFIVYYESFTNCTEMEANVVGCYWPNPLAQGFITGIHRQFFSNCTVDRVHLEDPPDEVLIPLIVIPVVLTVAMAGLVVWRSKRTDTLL
The data set is described as follows: Assay (II)a functional CRE-luciferase assay, human amylin receptor. It counts as cell-based. The note with it: Table 2; BHK amylin 3(a)-receptor/CRE-luc cells.

Data set [2] deals with T2, human calcitonin receptor (Homo sapiens, UniProt P30988).
T2 construct: expressed in transfected cells; host or cells: BHK570
T2 sequence (P30988 25-474): T1 sequence (P30988 25-474)
The data set is described as follows: Assay (II)a functional CRE-luciferase assay, human calcitonin receptor. The format is cell-based. The note with it: Table 7; human calcitonin (CTa) receptor.

The target in data set [3] is T3, rat amylin 3(a) receptor (rat calcitonin(a) receptor + rat RAMP3) (Rattus norvegicus, UniProt P32214+Q9JJ73).
T3 construct: expressed in transfected cells; host or cells: BHK tk'ts 13
T3 sequence (P32214 25-479 isoform P32214-2 limits assumed): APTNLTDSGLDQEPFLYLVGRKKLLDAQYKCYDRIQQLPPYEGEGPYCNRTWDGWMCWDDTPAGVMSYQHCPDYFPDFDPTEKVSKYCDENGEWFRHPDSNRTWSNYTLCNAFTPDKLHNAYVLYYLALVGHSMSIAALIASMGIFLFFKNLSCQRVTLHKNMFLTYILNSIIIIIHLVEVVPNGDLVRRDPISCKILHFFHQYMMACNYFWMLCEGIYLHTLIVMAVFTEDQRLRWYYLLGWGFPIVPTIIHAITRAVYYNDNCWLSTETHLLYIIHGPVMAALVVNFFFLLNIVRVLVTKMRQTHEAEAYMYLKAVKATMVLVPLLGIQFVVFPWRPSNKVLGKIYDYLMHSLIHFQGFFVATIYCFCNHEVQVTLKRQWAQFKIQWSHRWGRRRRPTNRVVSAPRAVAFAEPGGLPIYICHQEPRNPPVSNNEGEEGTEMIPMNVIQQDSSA
T3 sequence (Q9JJ73 23-147 partner): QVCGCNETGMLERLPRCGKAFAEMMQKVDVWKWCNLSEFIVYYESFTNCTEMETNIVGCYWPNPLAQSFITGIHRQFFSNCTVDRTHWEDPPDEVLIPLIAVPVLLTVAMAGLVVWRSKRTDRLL
The data set can be described thus: Assay (II)b functional cAMP FlashPlate assay, rat amylin receptor. It counts as cell-based. The note with it: Table 11. The method, boiled down: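 BHK tk'ts 13 cells transiently transfected with rat calcitonin(a) receptor, alone or with rat RAMP3 (amylin 3(a)), were stimulated 24 hours later with sample for 30 min in buffer containing IBMX. cAMP measured by competitive radioactive FlashPlate assay, scintillation read after 3 h detection incubation.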

Data set [4] can be described thus: Assay (IV) determination of solubility. The format is physicochemical. The method, boiled down: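 Solubility is measured across pH 3.0–8.0 by mixing a ~500 nmol/ml aqueous polypeptide stock 1:1 with 100 mM glycylglycine or bistrispropane buffers. Samples stand 18 hours at room temperature, then are centrifuged and the soluble concentration is determined by HPLC.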

Where [5] appears, read: bistrispropane buffer, pH 6, pH 6.0, read-out: Solubility pH 6.0.
Where [6] appears, read: bistrispropane buffer, pH 6.5, pH 6.5, read-out: Solubility pH 6.5.
Where [7] appears, read: glycylglycine buffer, pH 3, pH 3.0, read-out: Solubility pH 3.0.
Setting [8] is: glycylglycine buffer, pH 4, pH 4.0, 18 hours at room temperature, Table 2, read-out: Solubility pH 4.0.
Where [9] appears, read: glycylglycine buffer, pH 4, pH 4.0, read-out: Solubility pH 4.0.
Where [10] appears, read: glycylglycine buffer, pH 5, pH 5.0, read-out: Solubility pH 5.0.
Where [11] appears, read: bistrispropane buffer, pH 7, pH 7.0, read-out: Solubility pH 7.0.
Where [12] appears, read: bistrispropane buffer, pH 7.5, pH 7.5, read-out: Solubility pH 7.5.
Where [13] appears, read: bistrispropane buffer, pH 8, pH 8.0, read-out: Solubility pH 8.0.

≈ marks a conversion by molar mass, not a printed value. Where two headings read alike, the source gives them in different places. Starred links: 1 amine or outer side, 2 acyl side, 3 side chain; linkers in the order of their positions; H or OH if unused. Positions of bridges follow the written chain, without caps; N, C: chain ends. Residues, ends and D or L forms follow the SMILES beside them. *: point of attachment. C20 diacid = O=C(O)CCCCCCCCCCCCCCCCCCC(=O)*; γGlu = O=C(O)[C@H](CCC(=O)[*:2])N[*:1]

With `CC[C@H](C)[C@H](NC(=O)[C@@H]1CCCN1C(=O)CNC(=O)[C@H](Cc1ccccc1)NC(=O)[C@H](CC(N)=O)NC(=O)[C@H](CC(N)=O)NC(=O)[C@H](CO)NC(=O)[C@H](CO)NC(=O)[C@H](Cc1c[nH]cn1)NC(=O)[C@H](Cc1c[nH]cn1)NC(=O)[C@H](CC(C)C)NC(=O)[C@H](Cc1ccccc1)NC(=O)[C@H](CCC(=O)O)NC(=O)[C@H](C)NC(=O)[C@H](CC(C)C)NC(=O)[C@H](CCCNC(=N)N)NC(=O)[C@H](CCC(N)=O)NC(=O)[C@@H](NC(=O)[C@H](C)NC(=O)[C@@H]1CSSC[C@H](NC(=O)[C@H](Cc2c[nH]cn2)NC(=O)[C@H](Cc2c[nH]cn2)NC(=O)[C@H](Cc2c[nH]cn2)NC(=O)CC[C@H](NC(=O)CCCCCCCCCCCCCCCCCCC(=O)O)C(=O)O)C(=O)N[C@@H](CC(N)=O)C(=O)N[C@@H]([C@@H](C)O)C(=O)N[C@@H](C)C(=O)N[C@@H]([C@@H](C)O)C(=O)N1)[C@@H](C)O)C(=O)N[C@@H](CC(C)C)C(=O)N1CCC[C@H]1C(=O)N1CCC[C@H]1C(=O)N[C@H](C(=O)N[C@@H](CC(N)=O)C(=O)N[C@H](C(=O)NCC(=O)N[C@@H](CO)C(=O)N[C@@H](CCCNC(=N)N)C(=O)N[C@H](C(=O)N[C@@H](Cc1ccc(O)cc1)C(N)=O)[C@@H](C)O)C(C)C)[C@@H](C)O` [Example 21, N-alpha-[(S)-4-Carboxy-4-(19-carboxynonadecanoylamino)butyryl]-His-His-[His1,Glu14,His17,Arg35]-pramlintide] ({C20 diacid-γGlu}-HHHCNTATCATQRLAEFLHHSSNNFGPILPPTNVGSRTY-NH2; disulfide 4-9 (inferred)), the values for the EC50 in data set [1], in data set [2] and in data set [3] were 0.192 nM, 0.429 nM and 0.133 nM, respectively. Moreover, the solubility at 18 h in data set [4] (setting [5]) is more than 200 µM; in data set [4] (setting [6]), 87 µM (≈ 416 µg/mL); in data set [4] (setting [7]) it was more than 200 µM; in data set [4] (setting [8]) it was more than 200 µM; in data set [4] (setting [9]), more than 200 µM; in data set [4] (setting [10]), more than 200 µM. In data set [4] (pH 8.0, read-out: Solubility pH 8.0), the solubility at 18 h was found to be 1 µM (≈ 4.78 µg/mL).
`CC[C@H](C)[C@H](NC(=O)[C@@H]1CCCN1C(=O)CNC(=O)[C@H](Cc1ccccc1)NC(=O)[C@H](CC(N)=O)NC(=O)[C@H](CC(N)=O)NC(=O)[C@H](CO)NC(=O)[C@H](CO)NC(=O)[C@H](Cc1c[nH]cn1)NC(=O)[C@H](Cc1c[nH]cn1)NC(=O)[C@H](CC(C)C)NC(=O)[C@H](Cc1ccccc1)NC(=O)[C@H](CCC(=O)O)NC(=O)[C@H](C)NC(=O)[C@H](CC(C)C)NC(=O)[C@H](CCCNC(=N)N)NC(=O)[C@H](CCC(N)=O)NC(=O)[C@@H](NC(=O)[C@H](C)NC(=O)[C@@H]1CSSC[C@H](NC(=O)[C@H](CCCCN)NC(=O)[C@H](Cc2c[nH]cn2)NC(=O)CC[C@H](NC(=O)CCCCCCCCCCCCCCCCCCC(=O)O)C(=O)O)C(=O)N[C@@H](CC(N)=O)C(=O)N[C@@H]([C@@H](C)O)C(=O)N[C@@H](C)C(=O)N[C@@H]([C@@H](C)O)C(=O)N1)[C@@H](C)O)C(=O)N[C@@H](CC(C)C)C(=O)N1CCC[C@H]1C(=O)N1CCC[C@H]1C(=O)N[C@H](C(=O)N[C@@H](CC(N)=O)C(=O)N[C@H](C(=O)NCC(=O)N[C@@H](CO)C(=O)N[C@@H](Cc1c[nH]cn1)C(=O)N[C@H](C(=O)N[C@@H](Cc1ccc(O)cc1)C(N)=O)[C@@H](C)O)C(C)C)[C@@H](C)O` [Example 66, N-alpha-[(S)-4-Carboxy-4-(19-carboxynonadecanoylamino)butyryl]-His-[Glu14,His17,His35]-pramlintide] ({C20 diacid-γGlu}-HKCNTATCATQRLAEFLHHSSNNFGPILPPTNVGSHTY-NH2; disulfide 3-8 (inferred); C-terminus assumed): the EC50 in data set [1] amounted to 0.182 nM; in data set [2], 0.21 nM; in data set [3], 0.305 nM. Further, the solubility at 18 h is more than 200 µM in data set [4] (setting [5]); 155 µM (≈ 716 µg/mL) in data set [4] (setting [6]); 46 µM (≈ 212 µg/mL) in data set [4] (setting [11]); 77 µM (≈ 355 µg/mL) in data set [4] (setting [12]); 144 µM (≈ 665 µg/mL) in data set [4] (setting [13]); more than 200 µM in data set [4] (setting [7]). In addition, the solubility at 18 h in data set [4] (setting [8]), in data set [4] (setting [9]) and in data set [4] (setting [10]) was more than 200 µM throughout.
For the compound `CC[C@H](C)[C@H](NC(=O)[C@@H]1CCCN1C(=O)CNC(=O)[C@H](Cc1ccccc1)NC(=O)[C@H](CC(N)=O)NC(=O)[C@H](CC(N)=O)NC(=O)[C@H](CO)NC(=O)[C@H](CO)NC(=O)[C@H](Cc1c[nH]cn1)NC(=O)[C@H](Cc1c[nH]cn1)NC(=O)[C@H](CC(C)C)NC(=O)[C@H](Cc1ccccc1)NC(=O)[C@H](CCC(=O)O)NC(=O)[C@H](C)NC(=O)[C@H](CC(C)C)NC(=O)[C@H](CCCNC(=N)N)NC(=O)[C@H](CCC(N)=O)NC(=O)[C@@H](NC(=O)[C@H](C)NC(=O)[C@@H]1CSSC[C@H](NC(=O)[C@H](CCCCN)NC(=O)CC[C@H](NC(=O)CCCCCCCCCCCCCCCCCCC(=O)O)C(=O)O)C(=O)N[C@@H](CC(N)=O)C(=O)N[C@@H]([C@@H](C)O)C(=O)N[C@@H](C)C(=O)N[C@@H]([C@@H](C)O)C(=O)N1)[C@@H](C)O)C(=O)N[C@@H](CC(C)C)C(=O)N1CCC[C@H]1C(=O)N1CCC[C@H]1C(=O)N[C@H](C(=O)N[C@@H](CC(N)=O)C(=O)N[C@H](C(=O)NCC(=O)N[C@@H](CO)C(=O)N[C@@H](CC(N)=O)C(=O)N[C@H](C(=O)N[C@@H](Cc1ccc(O)cc1)C(N)=O)[C@@H](C)O)C(C)C)[C@@H](C)O` [Example 27, N-alpha-[(S)-4-Carboxy-4-(19-carboxynonadecanoylamino)butyryl]-[Glu14,His17]-pramlintide] ({C20 diacid-γGlu}-KCNTATCATQRLAEFLHHSSNNFGPILPPTNVGSNTY-NH2; disulfide 2-7 (inferred)), the EC50 in data set [1] was determined as 0.121 nM; in data set [2] it was 0.107 nM; in data set [3], 0.188 nM. For the same compound, the solubility at 18 h was more than 200 µM in data set [4] (setting [5]); 174 µM (≈ 775 µg/mL) in data set [4] (setting [6]); 160 µM (≈ 713 µg/mL) in data set [4] (bistrispropane buffer, pH 7, pH 7.0, 18 hours at room temperature, Table 3, read-out: Solubility pH 7.0); 160 µM (≈ 713 µg/mL) in data set [4] (setting [11]); more than 200 µM in data set [4] (setting [12]); more than 200 µM in data set [4] (setting [13]). Besides, the solubility at 18 h in data set [4] (setting [7]), in data set [4] (setting [8]), in data set [4] (setting [9]) and in data set [4] (setting [10]) was more than 200 µM in each case.
